Format in all cases: biochemical
Assay [1] addresses T1, N-acylsphingosine amidohydrolase (ASAH) (Homo sapiens, UniProt Q13510).
T1 sequence (Q13510 22-395): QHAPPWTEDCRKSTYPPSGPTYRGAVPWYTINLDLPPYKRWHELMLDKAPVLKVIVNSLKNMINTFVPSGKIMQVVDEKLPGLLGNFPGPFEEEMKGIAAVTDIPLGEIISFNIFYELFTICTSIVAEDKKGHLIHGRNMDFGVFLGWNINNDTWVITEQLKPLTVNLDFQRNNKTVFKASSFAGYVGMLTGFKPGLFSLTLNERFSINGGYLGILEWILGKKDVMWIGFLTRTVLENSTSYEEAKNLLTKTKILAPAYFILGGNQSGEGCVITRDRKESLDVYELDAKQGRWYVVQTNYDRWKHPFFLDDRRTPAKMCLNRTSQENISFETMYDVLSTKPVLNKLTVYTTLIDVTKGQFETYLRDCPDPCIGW
Briefly: ASAH activity assay (Figure S1). To be noted: 100 µM (Figure S1). On the procedure:
Supplementary file pone.0043023.s001.pdf: Figure S1 Effect of vehicle (open bar) and compound 16 (100 µM, closed bars) on the activity of NAAA, FAAH, MGL, and ASAH. ***, p<0.001, one-way ANOVA, n = 3. (PDF) Click here for additional data file.

The target in assay [2] is T2, NAAA (Rattus norvegicus, UniProt Q5KTC7).
T2 sequence (Q5KTC7 34-362): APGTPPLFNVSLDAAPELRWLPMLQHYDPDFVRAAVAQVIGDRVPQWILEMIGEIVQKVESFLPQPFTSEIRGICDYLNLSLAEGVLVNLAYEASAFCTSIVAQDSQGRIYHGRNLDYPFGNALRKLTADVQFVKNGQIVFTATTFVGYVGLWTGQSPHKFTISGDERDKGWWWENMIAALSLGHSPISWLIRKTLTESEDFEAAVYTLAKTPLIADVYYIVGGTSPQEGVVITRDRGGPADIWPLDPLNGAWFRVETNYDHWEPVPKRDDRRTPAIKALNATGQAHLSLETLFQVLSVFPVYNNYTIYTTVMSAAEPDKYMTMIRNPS
In words: Rapid dilution NAAA assay. To be noted: pre-incubation 10-fold IC50, 100-fold dilution. Further details: made in house; host or cells: HEK293 cells stably overexpressing rat NAAA (HEK293-rNAAA), a gift from D. Piomelli; crude 800 x g supernatant of sonicated cells. As for the experimental part:
Rapid dilution assay was performed as previously described. Briefly, samples containing 100-fold concentrated rNAAA recombinant protein were pre-incubated with 10-fold the IC50-equivalent concentration of compound 16 or vehicle (1% DMSO) for 10 min at 37°C. Samples were then diluted 100-fold with assay buffer containing substrate to initiate reactions, and the time course of product formation was measured by LC/MS.

Assay [3] concerns the target T3, rat FAAH (Rattus norvegicus, UniProt P97612).
T3 construct: made in house; host or cells: HEK293 cells stably overexpressing rat FAAH (HEK293-rFAAH), a gift from D. Piomelli; crude cell extract
T3 sequence (P97612 1-579): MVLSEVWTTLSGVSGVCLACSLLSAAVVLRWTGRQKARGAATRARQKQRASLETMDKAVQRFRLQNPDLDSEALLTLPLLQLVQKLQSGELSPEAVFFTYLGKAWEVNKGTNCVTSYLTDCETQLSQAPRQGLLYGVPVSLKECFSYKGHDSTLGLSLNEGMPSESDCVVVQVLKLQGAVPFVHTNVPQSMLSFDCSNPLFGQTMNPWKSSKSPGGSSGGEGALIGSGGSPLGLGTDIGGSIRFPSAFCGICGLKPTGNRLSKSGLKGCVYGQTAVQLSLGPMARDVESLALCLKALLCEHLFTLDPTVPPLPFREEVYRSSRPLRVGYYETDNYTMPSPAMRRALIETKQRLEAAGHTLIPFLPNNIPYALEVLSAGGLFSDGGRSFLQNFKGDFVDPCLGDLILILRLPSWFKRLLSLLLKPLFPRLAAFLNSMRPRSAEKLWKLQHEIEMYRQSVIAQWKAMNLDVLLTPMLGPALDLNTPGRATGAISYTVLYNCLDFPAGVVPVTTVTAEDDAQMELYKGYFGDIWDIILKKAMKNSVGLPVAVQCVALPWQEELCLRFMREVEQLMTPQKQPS
Briefly: FAAH enzymatic assay (recombinant rFAAH protein, LC/MS).
Procedure: HEK293-rNAAA or HEK293-rFAAH cells were harvested, washed with PBS, sonicated in 20 mM Tris-HCl (pH 7.5) containing 0.32 M sucrose, and centrifuged at 800 × g for 15 min at 4°C. The supernatants were collected and protein concentrations were measured by BCA protein assay kit (Pierce, Shanghai, China). […] The reactions were terminated by adding 0.2 mL methanol containing 1 nmol heptadecanoic acid and analyzed in LC/MS.
We use an Agilent 1200-LC system coupled to a 3200Q TRAP-MS detector equipped with an ESI interface (Agilent Technologies, Shanghai, China). […] The column temperature was set at 40°C. […] Mass spectrometer (MS) detection was ionized by positive-ion atmospheric pressure chemical ionization mode (APCI^+) and monitored in MRM mode. […] Quantifications were calculated at chromatographic peak areas by using Analyst® version 1.4.1. software (Applied Biosystems).

The text below walks through data of publication PMC3423427, “Design and Synthesis of Potent N-Acylethanolamine-hydrolyzing Acid Amidase (NAAA) Inhibitor as Anti-Inflammatory Compounds” (PLoS ONE, 2012).

Structures are written as SMILES.

Regarding `O=C(CCc1ccc(-c2ccccc2)cc1)N1CCCC1` [Compound 16, 1–(2–Biphenyl–4–yl)ethyl–carbonyl pyrrolidine], in assay [1], the “inhibitory effect on ASAH” value is given as “no inhibitory effect”. Besides, in assay [2], the “NAAA activity after rapid dilution of inhibitor-NAAA complex” value is given as “almost completely restored the NAAA activity”. In addition, in assay [3] (IC50 ± S.E.M., triplicate, 25 µM anandamide, pH 8.0), the IC50 is greater than 100 µM. Also, the “reduction of FAAH activity” value in assay [3] (at concentration of 100 µM) is recorded as “no more than 30%”.
